For data set [1], the target named is Nuclear receptor subfamily 4 group A member 2 (Homo sapiens, UniProt P43354). Kind of data set: Inverse agonist activity at Gal4-fused human […] Nurr1 LBD transfected in HEK293T cells assessed as suppression of Nurr1 activation incubated for 16 hrs by firefly/renilla based Dual-Glo luciferase assay. The data set is classed as cell-based.
Data set [2] concerns the target T1, Nuclear receptor subfamily 1 group I member 2 (Homo sapiens, UniProt O75469).
T1 sequence (O75469 whole entry): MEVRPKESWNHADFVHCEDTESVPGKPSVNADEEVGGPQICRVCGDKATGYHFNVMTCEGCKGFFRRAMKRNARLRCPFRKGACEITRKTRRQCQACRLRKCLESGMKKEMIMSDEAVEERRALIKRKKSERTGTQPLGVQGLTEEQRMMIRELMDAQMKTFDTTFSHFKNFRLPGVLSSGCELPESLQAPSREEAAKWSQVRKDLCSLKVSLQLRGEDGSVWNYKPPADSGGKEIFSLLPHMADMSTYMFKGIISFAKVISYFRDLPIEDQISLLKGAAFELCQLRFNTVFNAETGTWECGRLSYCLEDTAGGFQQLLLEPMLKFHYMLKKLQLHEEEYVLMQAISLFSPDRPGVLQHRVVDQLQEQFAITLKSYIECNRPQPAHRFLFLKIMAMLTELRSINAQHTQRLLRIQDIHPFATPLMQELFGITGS
Kind of data set: Inverse agonist activity at human PXR transfected in HEK293T cells incubated for 16 hrs by firefly/renilla based Dual-Glo luciferase assay. The data set is classed as cell-based.

The target in data set [3] is Nuclear receptor subfamily 4 group A member 3 (Homo sapiens, UniProt Q92570). Kind of data set: Inverse agonist activity at human NOR-1 (393 to 626 residues) transfected in HEK293T cells incubated for 16 hrs by firefly/renilla based Dual-Glo luciferase assay. The data set is classed as cell-based.
Data set [4] addresses T2, Nuclear receptor subfamily 1 group I member 3 (Homo sapiens, UniProt Q14994).
T2 sequence (Q14994 whole entry): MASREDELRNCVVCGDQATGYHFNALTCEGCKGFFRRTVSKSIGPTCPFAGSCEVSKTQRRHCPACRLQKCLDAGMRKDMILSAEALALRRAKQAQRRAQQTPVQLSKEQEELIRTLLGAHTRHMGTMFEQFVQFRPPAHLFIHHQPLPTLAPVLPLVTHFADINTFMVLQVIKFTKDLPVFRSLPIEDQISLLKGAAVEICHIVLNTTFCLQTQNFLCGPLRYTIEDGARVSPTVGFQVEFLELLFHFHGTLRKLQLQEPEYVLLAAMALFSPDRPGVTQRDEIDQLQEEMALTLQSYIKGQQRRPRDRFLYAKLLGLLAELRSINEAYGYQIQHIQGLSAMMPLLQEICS
Kind of data set: Inverse agonist activity at human CAR transfected in HEK293T cells incubated for 16 hrs by firefly/renilla based Dual-Glo luciferase assay. The data set is classed as cell-based.

Data set [5] can be described thus: in vitro. The note with it: male, Sprague-Dawley, rat, liver microsomes. Background: Microsomes from liver hold many membrane-bound enzymes, among them those of drug oxidation.

The term IC50 denotes the concentration that inhibits the measured activity by half. Broadly, the half-life is the time in which the quantity being followed falls by half. High values mean slow loss, low ones fast loss.

Chain of Nuclear receptor subfamily 4 group A member 3 (Q92570 whole entry, the tested form may be a part): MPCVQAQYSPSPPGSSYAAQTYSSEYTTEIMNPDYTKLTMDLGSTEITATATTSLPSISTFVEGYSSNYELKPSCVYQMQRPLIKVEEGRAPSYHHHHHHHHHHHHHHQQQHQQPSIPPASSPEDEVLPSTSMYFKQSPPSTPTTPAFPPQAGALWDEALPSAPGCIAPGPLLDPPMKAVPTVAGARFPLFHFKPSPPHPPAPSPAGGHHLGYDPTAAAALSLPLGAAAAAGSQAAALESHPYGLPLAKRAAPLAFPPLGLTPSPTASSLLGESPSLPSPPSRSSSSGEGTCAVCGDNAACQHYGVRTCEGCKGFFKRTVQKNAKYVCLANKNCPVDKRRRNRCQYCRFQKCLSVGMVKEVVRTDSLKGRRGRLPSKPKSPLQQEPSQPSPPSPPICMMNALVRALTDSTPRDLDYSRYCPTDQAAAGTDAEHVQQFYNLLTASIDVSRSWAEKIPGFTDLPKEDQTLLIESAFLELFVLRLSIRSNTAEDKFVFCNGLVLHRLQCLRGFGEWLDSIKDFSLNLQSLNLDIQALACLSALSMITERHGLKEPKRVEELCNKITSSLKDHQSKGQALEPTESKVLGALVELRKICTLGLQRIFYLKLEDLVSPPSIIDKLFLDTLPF
Chain of Nuclear receptor subfamily 4 group A member 2 (P43354 whole entry, the tested form may be a part): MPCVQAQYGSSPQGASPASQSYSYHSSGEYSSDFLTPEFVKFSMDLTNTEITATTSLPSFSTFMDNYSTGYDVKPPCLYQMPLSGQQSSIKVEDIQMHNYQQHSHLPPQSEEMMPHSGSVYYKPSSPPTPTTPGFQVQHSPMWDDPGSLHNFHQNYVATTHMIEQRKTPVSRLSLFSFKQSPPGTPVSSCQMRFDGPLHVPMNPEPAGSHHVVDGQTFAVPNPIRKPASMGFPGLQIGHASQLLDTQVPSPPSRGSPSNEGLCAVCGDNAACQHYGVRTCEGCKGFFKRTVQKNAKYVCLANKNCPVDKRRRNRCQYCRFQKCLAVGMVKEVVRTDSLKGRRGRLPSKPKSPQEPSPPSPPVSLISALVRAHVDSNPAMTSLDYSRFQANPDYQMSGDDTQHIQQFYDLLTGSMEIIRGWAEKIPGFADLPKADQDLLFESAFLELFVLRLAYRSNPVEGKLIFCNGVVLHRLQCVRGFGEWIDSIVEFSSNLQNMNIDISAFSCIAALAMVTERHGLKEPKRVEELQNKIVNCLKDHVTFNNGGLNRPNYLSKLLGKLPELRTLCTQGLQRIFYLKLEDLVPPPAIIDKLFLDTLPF

As to `Cc1cccc(-c2oc(CCC(=O)O)nc2-c2ccccc2)c1`, the concentration for half-maximal inhibition (IC50) in data set [1] is above 50 µM.

On to `O=C(O)/C=C/c1nc(-c2ccccc2)c(-c2ccccc2)o1`, for which the result in data set [2] was Active. This compound came in with an IC50 in data set [3] of 3.8 µM.

Take `CN(C)C(=O)CCc1nc(-c2ccccc2)c(-c2ccccc2Cl)o1`: the result in data set [2] and in data set [4] was Active. For the same compound, in data set [3], the IC50 was 29 µM.

In data set [5], `CN(C)C(=O)/C=C/c1nc(-c2ccccc2)c(-c2ccccc2)o1` registered a half-life at 1 h, 10 µM of 30 min.

On to `CC(C)NCC(O)COc1cccc2ccccc12` (stereo not drawn) [PROPRANOLOL], for which the half-life at 1 h, 10 µM in data set [5] worked out at 64 min. This half-life at 1 h, 10 µM is about 2.1-fold higher than that of the compound before.

For the origin of these results see ChEMBL document CHEMBL5523770 (J Med Chem, 2024).
